Results: US10196390B2, “TYK2 inhibitors and uses thereof” (Nimbus Lakshmi, Inc., priority 2014, dated 2019)
Like-named read-outs stand apart in the source and are kept apart here.

Legend:
Tyk2-pSTAT4 = test: IL-12 induced pSTAT4 in human PBMC; format: cell-based; conditions: read-out: Tyk2-pSTAT4 EC50
Protocol: (§1) Human PBMC are isolated from buffy coat and are stored frozen for assays as needed. Cells for assay are thawed and resuspended in complete media containing serum, then cells are diluted to 1.67 E6 cells/ml so that 120 μl per well is 200,000 cells. 15 μl of compound or DMSO is added to the well at the desired concentrations and incubated at 1 hr at 37 C. 15 μl of stimulus (final concentration of 1.7 ng/mL IL-12) is added for 30 minutes prior to pSTAT4 and total STAT4 analysis using cell lysates prepared and analyzed by MSD reagents as per manufacturer protocol. The final DMSO concentration of compound in the assay is 0.1%.

JAK2 = JAK2 (Homo sapiens (Human), UniProt O60674); test: JAK2 activity inhibition assay (radioactive kinase assay / Caliper assay); format: biochemical; conditions: read-out: JAK2 Ki
Method in brief: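 Mobility-shift (Caliper) read-out of phosphorylated peptide substrate. Compound diluted in 25 mM HEPES pH 7.5, 0.01% Brij-35, 0.01% Triton, 0.5 mM EGTA; enzyme added, then peptide plus ATP in 10 mM MgCl2. Incubated 25 min at 28° C, stopped with EDTA buffer.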

TYK2 = TYK2 (Homo sapiens (Human), UniProt P29597); test: Tyk2 activity inhibition assay (radioactive kinase assay / Caliper assay); format: biochemical
Method in brief: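 Radiometric format: TYK2 with peptide substrate (20 μM) and 33P-ATP at 10 μM in HEPES pH 7.5, 1% DMSO, 120 min at room temp, P81 paper capture. Caliper mobility-shift format: TYK2 9.75 nM, peptide 30 at 3 uM, ATP 16 uM (also 1 mM), 25 min at 28° C.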

JAK2-pSTAT5 = test: GM-CSF induced pSTAT5 in human PBMC; format: cell-based; conditions: read-out: JAK2-pSTAT5 EC50
Protocol: as §1, with “Cells for assay are thawed and resuspended in complete media containing serum, then cells are diluted to 1.67 E6 cells/ml so that 120 μl per well is 200,000 cells.” left out
Cells are prepared for analysis as in the above procedure and 15 μl of GM-CSF (final concentration 5 ng/mL) is added for 20 minutes prior to pSTAT5 and total STAT5 analysis using cell lysates prepared and analyzed by MSD reagents as per manufacturer protocol. The final DMSO concentration of compound in the assay is 0.1%.

[1] = IL-12 induced pSTAT4, human PBMC
[2] = GM-CSF induced pSTAT5, human PBMC

Sequence of JAK2 (O60674 whole entry): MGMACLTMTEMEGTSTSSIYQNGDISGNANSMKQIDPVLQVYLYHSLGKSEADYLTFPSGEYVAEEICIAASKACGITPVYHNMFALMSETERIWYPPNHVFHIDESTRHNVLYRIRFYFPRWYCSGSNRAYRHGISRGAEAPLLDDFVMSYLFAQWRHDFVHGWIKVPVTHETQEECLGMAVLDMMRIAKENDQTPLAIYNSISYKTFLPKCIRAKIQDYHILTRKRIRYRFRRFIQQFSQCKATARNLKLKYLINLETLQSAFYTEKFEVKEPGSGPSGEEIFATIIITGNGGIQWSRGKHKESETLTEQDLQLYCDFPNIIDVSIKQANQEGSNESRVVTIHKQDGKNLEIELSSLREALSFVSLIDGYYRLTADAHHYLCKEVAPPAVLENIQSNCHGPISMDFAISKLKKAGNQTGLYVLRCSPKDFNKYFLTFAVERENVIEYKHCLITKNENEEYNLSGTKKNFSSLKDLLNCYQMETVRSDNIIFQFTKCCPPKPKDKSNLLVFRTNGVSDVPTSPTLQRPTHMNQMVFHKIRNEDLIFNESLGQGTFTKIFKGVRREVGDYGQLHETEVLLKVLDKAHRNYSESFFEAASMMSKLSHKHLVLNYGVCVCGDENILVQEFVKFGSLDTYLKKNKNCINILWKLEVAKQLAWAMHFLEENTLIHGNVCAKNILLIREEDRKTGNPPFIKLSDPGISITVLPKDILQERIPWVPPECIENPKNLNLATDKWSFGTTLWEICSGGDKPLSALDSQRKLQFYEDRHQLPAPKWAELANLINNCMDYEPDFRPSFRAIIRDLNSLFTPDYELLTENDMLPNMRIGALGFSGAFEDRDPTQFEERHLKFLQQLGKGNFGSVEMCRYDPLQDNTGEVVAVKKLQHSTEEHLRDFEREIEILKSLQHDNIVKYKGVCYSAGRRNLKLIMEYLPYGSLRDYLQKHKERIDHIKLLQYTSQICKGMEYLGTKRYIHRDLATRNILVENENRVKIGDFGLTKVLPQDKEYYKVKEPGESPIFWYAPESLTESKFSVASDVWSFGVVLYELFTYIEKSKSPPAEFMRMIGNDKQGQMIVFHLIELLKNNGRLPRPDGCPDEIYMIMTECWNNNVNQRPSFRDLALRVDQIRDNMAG
Sequence of TYK2 (P29597 whole entry): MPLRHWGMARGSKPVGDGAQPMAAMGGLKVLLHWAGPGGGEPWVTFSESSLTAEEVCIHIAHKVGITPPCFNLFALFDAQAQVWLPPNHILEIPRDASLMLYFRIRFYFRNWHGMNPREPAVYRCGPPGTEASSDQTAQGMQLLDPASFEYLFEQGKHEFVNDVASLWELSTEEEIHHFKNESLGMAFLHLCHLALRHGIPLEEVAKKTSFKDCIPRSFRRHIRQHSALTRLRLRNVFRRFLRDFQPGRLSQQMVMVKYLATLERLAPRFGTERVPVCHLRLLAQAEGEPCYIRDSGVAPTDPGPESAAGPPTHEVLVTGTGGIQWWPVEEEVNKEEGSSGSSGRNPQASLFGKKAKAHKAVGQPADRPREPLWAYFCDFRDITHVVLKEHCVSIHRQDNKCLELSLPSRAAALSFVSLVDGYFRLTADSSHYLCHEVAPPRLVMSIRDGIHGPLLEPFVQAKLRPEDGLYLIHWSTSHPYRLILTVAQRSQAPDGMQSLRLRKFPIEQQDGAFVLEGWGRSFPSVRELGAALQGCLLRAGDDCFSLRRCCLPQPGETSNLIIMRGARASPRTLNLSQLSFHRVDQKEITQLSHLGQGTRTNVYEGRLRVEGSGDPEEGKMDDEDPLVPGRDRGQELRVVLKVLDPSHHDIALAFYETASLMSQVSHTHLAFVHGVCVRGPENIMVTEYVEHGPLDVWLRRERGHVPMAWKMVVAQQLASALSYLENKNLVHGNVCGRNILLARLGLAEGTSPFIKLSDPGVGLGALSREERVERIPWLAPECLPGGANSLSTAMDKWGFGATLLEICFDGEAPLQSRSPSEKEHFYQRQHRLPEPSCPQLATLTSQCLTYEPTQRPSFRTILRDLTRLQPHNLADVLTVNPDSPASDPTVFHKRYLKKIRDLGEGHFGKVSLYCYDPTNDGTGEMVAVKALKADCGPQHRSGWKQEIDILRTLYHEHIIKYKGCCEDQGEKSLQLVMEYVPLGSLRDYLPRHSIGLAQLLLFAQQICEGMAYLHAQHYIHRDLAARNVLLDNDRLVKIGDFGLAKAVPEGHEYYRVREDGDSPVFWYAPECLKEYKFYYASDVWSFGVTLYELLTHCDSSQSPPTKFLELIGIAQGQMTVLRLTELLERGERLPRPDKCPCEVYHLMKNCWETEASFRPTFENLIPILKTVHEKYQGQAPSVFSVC

Structure (SMILES) | EC50 (Tyk2-pSTAT4; [1]) | Ki (JAK2) | Ki (TYK2) | EC50 (JAK2-pSTAT5; [2]) | EC50 (Tyk2-pSTAT4; Homo sapiens, PBMC) | EC50 (JAK2-pSTAT5; Homo sapiens, PBMC)
O=C1NCc2nc(-c3c(F)cccc3F)nc(Nc3ccc([C@H]4CCCNC4=O)cc3)c21 [Compound I-154, (R)-2-(2,6-difluorophenyl)-4-((4-(2-oxopiperidin-3-yl)phenyl)amino)-6,7-dihydro-5H-pyrrolo[3,4-d]pyrimidin-5-one] | < 2000 nM | 100 to 1000 nM | < 10 nM | > 20 µM |  | 
CC1(C)OCCN(c2ccc(Nc3cc(-c4c(F)cccc4F)nc4c3C(=O)NC4)nc2)C1=O [Compound I-273, 4-(6-((2-(2,6-difluorophenyl)-5-oxo-6,7-dihydro-5H-pyrrolo[3,4-b]pyridin-4-yl)amino)pyridin-3-yl)-2,2-dimethylmorpholin-3-one] | < 2000 nM | 10 to 100 nM |  | < 2 µM |  | 
CC(C)N1CCN(c2ccc(Nc3cc(-c4c(F)cccc4F)nc4c3C(=O)NC4)nc2)C(=O)C1 [Compound I-242, 2-(2,6-difluorophenyl)-4-((5-(4-isopropyl-2-oxopiperazin-1-yl)pyridin-2-yl)amino)-6,7-dihydro-5H-pyrrolo[3,4-b]pyridin-5-one] | < 2000 nM | 10 to 100 nM |  | 2 to 20 µM |  | 
CC(C)(C(=O)O)c1ccc(Nc2nc(-c3c(F)cccc3F)nc3c2C(=O)NC3)cc1 [Compound I-109, 2-(4-((2-(2,6-difluorophenyl)-5-oxo-6,7-dihydro-5H-pyrrolo[3,4-d]pyrimidin-4-yl)amino)phenyl)-2-methylpropanoic Acid] |  | 100 to 1000 nM | < 10 nM | > 20 µM | 2000 to 20000 nM | 
O=C(Cc1ccc(Nc2nc(-c3c(F)cccc3F)nc3c2C(=O)NC3)cc1)NC1CCOCC1 [Compound I-65, 2-(4-((2-(2,6-difluorophenyl)-5-oxo-6,7-dihydro-5H-pyrrolo[3,4-d]pyrimidin-4-yl)amino)phenyl)-N-(tetrahydro-2H-pyran-4-yl)acetamide] | < 2000 nM | 100 to 1000 nM | < 10 nM | > 20 µM |  | 
CC(C)N1CCN(C(=O)c2ccc(Nc3cc(-c4c(F)cccc4F)nc4c3C(=O)NC4)cc2)CC1 [Compound I-243, 2-(2,6-difluorophenyl)-4-((4-(4-isopropylpiperazine-1-carbo-nyl)phenyl)amino)-6,7-dihydro-5H-pyrrolo[3,4-b]pyridin-5-one] | < 2000 nM | 10 to 100 nM |  | 2 to 20 µM |  | 
O=C1NCc2nc(-c3c(F)cccc3F)cc(Nc3ccc(N4CCCOCC4)cn3)c21 [Compound I-253, 4-((5-(1,4-oxazepan-4-yl)pyridin-2-yl)amino)-2-(2,6-difluoro-phenyl)-6,7-dihydro-5H-pyrrolo[3,4-b]pyridin-5-one] | < 2000 nM | 10 to 100 nM |  | > 20 µM |  | 
CCNC(=O)c1ccc(Nc2nc(-c3c(F)cccc3F)nc3c2C(=O)NC3)cc1 [Compound I-195, 4-((2-(2,6-difluorophenyl)-5-oxo-6,7-dihydro-5H-pyrrolo[3,4-d]pyrimidin-4-yl)amino)-N-ethylbenzamide] |  | 100 to 1000 nM |  | > 20 µM | < 2000 nM | 
O=C1NCc2nc(-c3c(F)cccc3F)cc(Nc3ccc(N4CCOCC4)nc3)c21 [Compound I-238, 2-(2,6-difluorophenyl)-4-((6-morpholinopyridin-3-yl)amino)-6,7-dihydro-5H-pyrrolo[3,4-b]pyridin-5-one] | < 2000 nM | 100 to 1000 nM |  | > 20 µM |  | 
CCNC(=O)c1ccc(Nc2cc(-c3c(F)cccc3F)nc3c2C(=O)NC3)cn1 [Compound I-260, 5-((2-(2,6-difluorophenyl)-5-oxo-6,7-dihydro-5H-pyrrolo[3,4-b]pyridin-4-yl)amino)-N-ethylpicolinamide] | < 2000 nM | 100 to 1000 nM |  | > 20 µM |  | 
CC1(C)CCC(=O)N1c1ccc(Nc2cc(-c3c(F)cccc3F)nc3c2C(=O)NC3)nc1 [Compound I-272, 2-(2,6-difluorophenyl)-4-((5-(2,2-dimethyl-5-oxopyrrolidin-1-yl)pyridin-2-yl)amino)-6,7-dihydro-5H-pyrrolo[3,4-b]pyridin-5-one] | < 2000 nM |  |  | < 2 µM |  | 
C[C@@H]1CCC[C@@H](C)N1c1ccc(Nc2cc(-c3c(F)cccc3F)nc3c2C(=O)NC3)nc1 [Compound I-265, 2-(2,6-difluorophenyl)-4-((5-((2R,6R)-2,6-dimethylpiperidin-1-yl)pyridin-2-yl)amino)-6,7-dihydro-5H-pyrrolo[3,4-b]pyridin-5-one] | < 2000 nM | 10 to 100 nM |  | 2 to 20 µM |  | 
O=C1NCc2nc(-c3c(F)cccc3F)cc(Nc3ccc(N4CCOCC4=O)cn3)c21 [Compound I-248, 4-(6-((2-(2,6-difluorophenyl)-5-oxo-6,7-dihydro-5H-pyrrolo[3,4-b]pyridin-4-yl)amino)pyridin-3-yl)morpholin-3-one] | < 2000 nM | 10 to 100 nM |  | < 2 µM |  | 
O=C1NCc2nc(-c3c(F)cccc3F)cc(Nc3ccc(C(=O)N4CCCCC4)cc3)c21 [Compound I-257, 2-(2,6-difluorophenyl)-4-((4-(piperidine-1-carbonyl)phenyl)-amino)-6,7-dihydro-5H-pyrrolo[3,4-b]pyridin-5-one] | < 2000 nM | 10 to 100 nM |  | 2 to 20 µM |  | 
CC(C)Oc1ccc(Nc2nc(-c3c(F)cccc3F)nc3c2C(=O)NC3)cc1 [Compound I-181, 2-(2,6-difluorophenyl)-4-((4-isopropoxyphenyl)amino)-6,7-dihydro-5H-pyrrolo[3,4-d]pyrimidin-5-one] | < 2000 nM | 100 to 1000 nM |  | > 20 µM |  | 
CC(C)N1CCN(c2ccc(Nc3cc(-c4c(F)cccc4F)nc4c3C(=O)NC4)nc2)CC1 [Compound I-256, 2-(2,6-difluorophenyl)-4-((5-(4-isopropylpiperazin-1-yl)pyridin-2-yl)amino)-6,7-dihydro-5H-pyrrolo[3,4-b]pyridin-5-one] | < 2000 nM |  |  | < 2 µM |  | 
CC[C@@]1(c2ccc(Nc3nc(-c4c(F)cccc4F)nc4c3C(=O)NC4)cc2)CCNC1=O [Compound I-176, (S)-2-(2,6-difluorophenyl)-4-((4-(3-ethyl-2-oxopyrrolidin-3-yl)phenyl)amino)-6,7-dihydro-5H-pyrrolo[3,4-d]pyrimidin-5-one] | < 2000 nM | 10 to 100 nM |  | 2 to 20 µM |  | 
O=C1NCc2nc(-c3c(F)cccc3F)cc(Nc3ccc(N4CCN(CC(F)F)CC4)cn3)c21 [Compound I-247, 4-((5-(4-(2,2-difluoroethyl)piperazin-1-yl)pyridin-2-yl)amino)-2-(2,6-difluorophenyl)-6,7-dihydro-5H-pyrrolo[3,4-b]pyridin-5-one] | < 2000 nM | 10 to 100 nM |  | < 2 µM |  | 
O=C1NCc2nc(-c3c(F)cccc3F)cc(Nc3ccc(N4CC(F)(F)C4)cn3)c21 [Compound I-229, 4-((5-(3,3-difluoroazetidin-1-yl)pyridin-2-yl)amino)-2-(2,6-difluorophenyl)-6,7-dihydro-5H-pyrrolo[3,4-b]pyridin-5-one] |  | 10 to 100 nM |  | 2 to 20 µM | < 2000 nM | 
CC1(O)CN(c2ccc(Nc3cc(-c4c(F)cccc4F)nc4c3C(=O)NC4)nc2)C1 [Compound I-228, 2-(2,6-difluorophenyl)-4-((5-(3-hydroxy-3-methylazetidin-1-yl)pyridin-2-yl)amino)-6,7-dihydro-5H-pyrrolo[3,4-b]pyridin-5-one] |  | 10 to 100 nM |  | 2 to 20 µM | < 2000 nM | 
Cc1ccc(Nc2nc(-c3c(F)cccc3F)nc3c2C(=O)NC3)cc1 [Compound I-21, 2-(2,6-difluorophenyl)-4-(p-tolylamino)-6,7-dihydro-5H-pyrrolo[3,4-d]pyrimidin-5-one] |  |  |  |  | < 2000 nM | > 20 µM
O=C1NCc2nc(-c3c(F)cccc3F)cc(Nc3ccc(N4CCN(CCC(F)(F)F)CC4)cn3)c21 [Compound I-262, 2-(2,6-difluorophenyl)-4-((5-(4-(3,3,3-trifluoropropyl)piperazin-1-yl)pyridin-2-yl)amino)-6,7-dihydro-5H-pyrrolo[3,4-b]pyridin-5-one] | < 2000 nM | 10 to 100 nM |  | < 2 µM |  | 
O=C1NCc2nc(-c3c(F)cccc3F)cc(Nc3ccc(N4CCCC4)cn3)c21 [Compound I-205, 2-(2,6-difluorophenyl)-4-((5-(pyrrolidin-1-yl)pyridin-2-yl)ami-no)-6,7-dihydro-5H-pyrrolo[3,4-b]pyridin-5-one] | < 2000 nM |  |  | 2 to 20 µM |  | 
